Experimental data from patent US5424293A (Cassella AG, priority 1992, dated 1995).
Where two headings read alike, the source gives them in different places.

Experiments:
[1] = target: T1, fibrinogen receptor (glycoprotein IIb/IIIa) (Homo sapiens, UniProt P05106+P08514); assay: Inhibition of binding of 125I-fibrinogen to its receptor on intact, gel-filtered human platelets; details: inhibition of 125I-fibrinogen binding, stimulation with ADP (10 μM), read-out: Ki (μM), ADP-stimulated
T1 construct: endogenous in cells
T1 sequence (P08514 32-887 limits assumed): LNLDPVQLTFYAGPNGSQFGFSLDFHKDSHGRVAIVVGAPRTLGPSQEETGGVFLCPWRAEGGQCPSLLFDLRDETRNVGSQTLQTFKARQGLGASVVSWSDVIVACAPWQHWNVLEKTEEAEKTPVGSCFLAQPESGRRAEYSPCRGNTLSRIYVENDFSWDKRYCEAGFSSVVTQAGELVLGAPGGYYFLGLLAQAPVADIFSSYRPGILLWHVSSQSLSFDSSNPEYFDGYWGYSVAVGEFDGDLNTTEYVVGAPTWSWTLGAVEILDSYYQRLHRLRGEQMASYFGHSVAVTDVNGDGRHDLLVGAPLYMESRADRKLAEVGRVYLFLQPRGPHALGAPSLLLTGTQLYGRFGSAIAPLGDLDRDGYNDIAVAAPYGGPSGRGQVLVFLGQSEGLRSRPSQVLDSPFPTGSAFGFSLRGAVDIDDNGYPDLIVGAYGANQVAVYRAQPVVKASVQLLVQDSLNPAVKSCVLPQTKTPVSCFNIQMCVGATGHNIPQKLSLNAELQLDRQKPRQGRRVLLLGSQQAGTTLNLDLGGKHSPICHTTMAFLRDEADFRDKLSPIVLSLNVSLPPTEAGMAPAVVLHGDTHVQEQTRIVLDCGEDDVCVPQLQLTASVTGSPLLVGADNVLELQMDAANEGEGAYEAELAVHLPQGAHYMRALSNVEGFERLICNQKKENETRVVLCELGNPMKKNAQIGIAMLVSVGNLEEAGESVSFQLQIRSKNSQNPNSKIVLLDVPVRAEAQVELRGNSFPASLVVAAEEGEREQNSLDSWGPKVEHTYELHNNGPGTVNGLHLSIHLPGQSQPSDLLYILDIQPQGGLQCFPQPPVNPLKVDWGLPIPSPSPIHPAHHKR
T1 sequence (P08514 891-1039 partner limits assumed): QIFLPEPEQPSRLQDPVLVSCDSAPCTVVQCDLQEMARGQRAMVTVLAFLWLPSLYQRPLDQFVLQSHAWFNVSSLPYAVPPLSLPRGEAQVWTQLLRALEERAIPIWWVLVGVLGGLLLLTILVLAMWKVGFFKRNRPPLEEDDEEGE
T1 sequence (P05106 27-788): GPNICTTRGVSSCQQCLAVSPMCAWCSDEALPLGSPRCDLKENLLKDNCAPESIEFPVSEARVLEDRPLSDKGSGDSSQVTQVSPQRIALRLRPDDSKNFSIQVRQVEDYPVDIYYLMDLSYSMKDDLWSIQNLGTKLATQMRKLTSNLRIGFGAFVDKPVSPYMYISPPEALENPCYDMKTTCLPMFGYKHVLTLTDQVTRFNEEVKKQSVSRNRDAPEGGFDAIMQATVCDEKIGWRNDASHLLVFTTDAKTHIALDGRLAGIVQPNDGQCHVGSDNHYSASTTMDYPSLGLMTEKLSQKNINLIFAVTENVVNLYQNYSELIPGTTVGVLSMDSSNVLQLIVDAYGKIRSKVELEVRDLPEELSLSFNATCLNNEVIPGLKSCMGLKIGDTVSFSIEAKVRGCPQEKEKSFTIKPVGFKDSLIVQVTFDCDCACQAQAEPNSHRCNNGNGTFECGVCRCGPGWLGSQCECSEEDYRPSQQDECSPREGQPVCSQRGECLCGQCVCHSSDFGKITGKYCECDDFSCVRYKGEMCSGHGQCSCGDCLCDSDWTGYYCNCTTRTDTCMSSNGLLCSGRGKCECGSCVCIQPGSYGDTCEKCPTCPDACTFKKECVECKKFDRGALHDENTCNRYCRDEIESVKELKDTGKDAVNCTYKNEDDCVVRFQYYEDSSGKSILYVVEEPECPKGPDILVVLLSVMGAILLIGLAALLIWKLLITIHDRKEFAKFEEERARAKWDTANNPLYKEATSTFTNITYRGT
Procedure: (§1) The compounds are tested in particular for their inhibitory action in blood platelet aggregation and the adhesion of fibrinogen to blood platelets. Gel-filtered blood platelets from human donor blood are used, which are activated with ADP or thrombin.
The inhibition of the binding of fibrinogen to its receptor (glycoprotein IIb/IIIa) by the compounds according to the invention is tested on intact, gel-filtered human platelets. The Ki value of the inhibition of binding of ^125 I-fibrinogen after stimulation with ADP (10 μM) is given. (References: J. S. Bennett and G. Vilaire, J. Clin. Invest. 64 (1979), 1393-1401; E. Kornecki et al., J. Biol. Chem. 256 (1981), 5695-5701; G. A. Marguerie et al., J. Biol. Chem. 254 (1979), 5357-5363; G. A. Marguerie et al., J. Biol. Chem. 255 (1980), 154-161).

[2] = test system: gel-filtered human platelets; assay: Inhibition of aggregation of gel-filtered human platelets after ADP or thrombin stimulation; type: cell-based
Procedure: as §1
As a functional test, the inhibition of aggregation of gel-filtered human platelets by the compounds according to the invention is measured after ADP or thrombin stimulation. The IC50 value of the inhibition is given.

N=C(N)Nc1cccc(C2NC(=O)N(CC(=O)N[C@@H](CC(=O)O)C(=O)N[C@H](C(=O)O)c3ccccc3)C2=O)c1 (stereo partly drawn) [Example 2]
Ki [1]: 2 µM
IC50 ([2]; Platelet, inhibition of aggregation of gel-filtered human platelets, ADP stimulation, read-out: ADP-stimulated IC50): 6000 nM
IC50 ([2]; Platelet; inhibition of aggregation of gel-filtered human platelets, thrombin stimulation; read-out: Thrombin-stimulated IC50 9 μM)): 3000 nM

N=C(N)Nc1ccc(C2NC(=O)N(CC(=O)N[C@@H](CC(=O)O)C(=O)N[C@H](C(=O)O)c3ccccc3)C2=O)cc1 (stereo partly drawn) [Example 1, (5-(4-Guanidinophenyl)-2,4-dioxoimidazolin-3-yl)acetyl-L-aspartyl-L-phenylglycine]
Ki [1]: 0.03 µM
IC50 ([2]; inhibition of aggregation of gel-filtered human platelets, ADP stimulation, read-out: ADP-stimulated IC50): 200 nM
IC50 ([2]; inhibition of aggregation of gel-filtered human platelets, thrombin stimulation; read-out: Thrombin-stimulated IC50 9 μM)): 70 nM
